Experiments:
[1] = target: T1, Replicase polyprotein 1ab (Severe acute respiratory syndrome coronavirus 2, UniProt P0DTD1); assay: Inhibition of SARS-CoV-2 PL protease
[2] = target: T1, Replicase polyprotein 1ab; assay: Inhibition of SARS-CoV-2 RdRp
[3] = target: T1, Replicase polyprotein 1ab; assay: Inhibition of SARS-CoV-2 N/C terminal 6his tagged 3CL protease extracted from Escherichia coli BL21(DE3) using CA-AVLQSGFR-Lys(Dnp)-Lys-NH2 as fluorescent substrate preincubated for 1 hr followed by substrate addition and measured after 20 mins by FRET analysis
[4] = target: Replicase polyprotein 1ab (Severe acute respiratory syndrome coronavirus 2) (UniProt P0DTD1); assay: (§1) Inhibition of SARS-CoV-2 N/C terminal 6his tagged 3CL protease extracted from Escherichia coli BL21(DE3) using CA-AVLQSGFR-Lys(Dnp)-Lys-NH2 as fluorescent substrate preincubated for 1 hr followed by substrate addition and measured after 20 mins by FRET analysis relative to control; design: concentration or dose not given beside the values; details: time 80.0 min
[5] = target: Replicase polyprotein 1ab (Severe acute respiratory syndrome coronavirus 2) (UniProt P0DTD1); assay: as §1, with “10 mins” for “1 hr”, “every 10 sec for 10” for “after 20”, “mins in presence of DTT” for “mins”; design: concentration or dose not given beside the values; details: time 20.0 min
Vero C1008 = assay: Cytotoxicity against African green monkey Vero E6 cells at 1 mM incubated for 24 hrs by CCK-8 method; type: toxicity, cell-based; details: chlorocebus sabaeus, vero c1008, 24 h, 1000 µM

Row | SMILES | IC50 [1] [µM] | IC50 [2] [µM] | IC50 [3] [µM] | inhibition [4] [%] | inhibition [5] [%] | Activity (Vero C1008)
1 | S=C(SSC(=S)N1CCCCC1)N1CCCCC1 [BIS(PIPERIDINYLTHIOCARBONYL)DISULFIDE] | 0.07 | 10.2 | 1.48 |  |  | 
2 | OC1CCN(C(=S)SSc2ccc(F)cc2)CC1 | 0.1 | 9.77 | 0.19 | > 95 | 60 | Toxic
3 | S=C(SSC(=S)N1CCCC1)N1CCCC1 [BIS(PYRROLIDINYLTHIOCARBONYL)DISULFIDE] | 0.06 | 8.92 | 1.34 |  |  | 
4 | S=C(SSc1ccccc1)N1CCCCC1 | 2.5 | > 100 | 0.64 |  |  | 
5 | O=[N+]([O-])c1ccc(SSC(=S)N2CCC(O)CC2)cc1 | 0.32 | 45.6 | 0.24 | > 95 | 60 | Toxic
6 | COc1ccc(SSC(=S)N2CCC(O)CC2)cc1 | 0.15 | 8.52 | 0.23 | > 95 | 60 | Toxic
7 | COC(=O)C1CCCN1C(=S)SSc1ccccc1 (stereo not given) | 0.39 | 57.6 | 0.54 |  |  | 
8 | S=C(SSC(=S)N1CCOCC1)N1CCOCC1 | 0.39 | 53.6 | 1.22 |  |  | 
9 | CCN(CC)C(=S)SSc1ccccc1 | > 100 | > 100 | 1070 |  |  | 
10 | OC1CCN(C(=S)SSC(=S)N2CCC(O)CC2)CC1 | 0.58 | 83.1 | 0.92 |  | 60 | Toxic
11 | Oc1ccc(SSC(=S)N2CCC(O)CC2)cc1 | 7.71 | 97.8 | 0.3 | > 95 | 60 | Toxic
12 | OC1CCN(C(=S)SSc2ccccc2)CC1 | > 100 | > 100 | 0.35 | > 95 | 60 | Toxic
13 | S=C(SSc1ccccc1)N1CCOCC1 | 1.73 | > 100 | 0.66 |  |  | 
14 | OC1CCN(C(=S)SSCc2ccccc2)CC1 | 0.33 | 21.4 | 0.25 | > 95 | 60 | 
15 | S=C(SSc1ccccc1)N1CCCC1 | 0.22 | 12 | 0.4 |  |  | 
16 | COC(=O)CCSSC(=S)N1CCC(O)CC1 | > 100 | > 100 | 0.47 | > 95 |  | Toxic
17 | OC1CCN(C(=S)SSc2ccc(C(F)(F)F)cc2)CC1 | 0.04 | 15.9 | 0.14 | > 95 | 60 | Toxic
